# Data as given in patent US20210085640A1, “ACYLATED CATECHIN POLYPHENOLS AND METHODS OF THEIR USE FOR THE TREATMENT OF CANCER” (Flagship Pioneering Innovations V, Inc., priority 2018, published 2021).
# pIC50: −log10 of the molar value.
# Tests used:
# Format in all cases: cell-based
# [1] = tested on: HCT 116 colorectal cancer cells; test: Cancer cell survival (CellTiter-Glo), HCT 116; conditions: HCT 116 cells, 72 h
# Description: (§1) The cells were prepared as follows. Cells were harvested during logarithmic growth, counted, and adjusted to 4.44×10^4 cells/mL with culture media. 90 μL of suspended cells were added to wells of 96-well plates for a final cell count of 4×10^3 cells/well. The plates were incubated overnight at 37 C with 5% CO2 overnight.
# (§2) The test compounds were assayed as follows. Compound solutions were mixed at 10× final concentrations in cell media: 1 μM-10 mM (fatty acids) or 100 nM-1 mM (all other compounds). […] of solution was added to each well of cells in triplicate for each concentration. Well plates were incubated for 72 h at 37 C with 5% CO2 and then assayed with CellTiter-Glo by adding 50 μL of CTG solution to each well. Cells were lysed by shaking on an orbital shaker for 5 min. Plates were incubated at room temperature for 20 min and then each well's luminescence was measured. The surviving percentage of cells was determined as:
# (§3) Survival %=(LumTest article−LumMedium control)/(LumNone treated−LumMedium control)[…]
# (§4) Cytotoxicity was assessed at nine concentration levels for each compound and the 50% inhibition concentration (IC50) determined for each compound.
# A549 lung cancer cells = test: Cancer cell survival (CellTiter-Glo), A549; conditions: 72 h
# Description: as §1, §2, §3, §4
# A-431 skin cancer cells = test: Cancer cell survival (CellTiter-Glo), A-431; design: Cell survival at given concentration: unit not given here; conditions: A-431 cells, 72 h
# Description: as §1, §2, §3, §4
# [2] = tested on: Daudi lymphoma cancer cells; test: Cancer cell survival (CellTiter-Glo), Daudi; conditions: 72 h
# Description: as §1, §2, §3
# Activity was assessed at nine concentration levels for each compound and the 50% inhibition concentration (IC50) determined for each compound.
# MCF7 breast cancer cells = test: Cancer cell survival (CellTiter-Glo), MCF7; conditions: 72 h
# Description: as §1, §2, §3, §4
# [3] = tested on: PC-3 prostate cancer cells; test: Cancer cell survival (CellTiter-Glo), PC-3; conditions: PC-3 cells, 72 h
# Description: as §1, §2, §3, §4
# T24 bladder cancer cells = test: Cancer cell survival (CellTiter-Glo), T24; conditions: 72 h
# Description: as §1, §2, §3
# Efficacy was assessed at nine concentration levels for each compound and the 50% inhibition concentration (IC50) determined for each compound.
# AGS stomach cancer cells = test: Cancer cell survival (CellTiter-Glo), AGS; design: Cell survival at given concentration: unit not given here
# Description: as §1, §2, §3, §4
structure (smiles),measurement,setting,value
Cc1c(C)c2c(c(C)c1O)CC[C@@](C)(CCC[C@H](C)CCC[C@H](C)CCCC(C)C)O2 [alpha-tocopherol],Cell survival at given concentration,[1]; 101 nM,0.99
same,Cell survival at given concentration,[1]; 318 nM,0.98
same,Cell survival at given concentration,[1]; 1 μM,1.00
same,Cell survival at given concentration,[1]; 3 μM,1.01
same,Cell survival at given concentration,[1]; 10 μM,1.01
same,Cell survival at given concentration,[1]; 32 μM,1.03
same,Cell survival at given concentration,[1]; 100 μM,1.03
same,Cell survival at given concentration,[1]; 316 μM,0.98
same,Cell survival at given concentration,[1]; 1000 μM,0.97
same,Cell survival at given concentration,A549 lung cancer cells; 101 nM,1.03
same,Cell survival at given concentration,A549 lung cancer cells; 318 nM,1.05
same,Cell survival at given concentration,A549 lung cancer cells; 1 μM,1.06
same,Cell survival at given concentration,A549 lung cancer cells; 3 μM,1.04
same,Cell survival at given concentration,A549 lung cancer cells; 10 μM,1.08
same,Cell survival at given concentration,A549 lung cancer cells; 32 μM,1.09
same,Cell survival at given concentration,A549 lung cancer cells; 100 μM,1.08
same,Cell survival at given concentration,A549 lung cancer cells; 316 μM,1.07
same,Cell survival at given concentration,A549 lung cancer cells; 1000 μM,1.02
same,Cell survival at given concentration,A-431 skin cancer cells; 101 nM,1.00
same,Cell survival at given concentration,A-431 skin cancer cells; 318 nM,0.99
same,Cell survival at given concentration,A-431 skin cancer cells; 1 μM,1.01
same,Cell survival at given concentration,A-431 skin cancer cells; 3 μM,1.01
same,Cell survival at given concentration,A-431 skin cancer cells; 10 μM,1.03
same,Cell survival at given concentration,A-431 skin cancer cells; 32 μM,1.01
same,Cell survival at given concentration,A-431 skin cancer cells; 100 μM,1.02
same,Cell survival at given concentration,A-431 skin cancer cells; 316 μM,1.01
same,Cell survival at given concentration,A-431 skin cancer cells; 1000 μM,1.04
same,Cell survival at given concentration,[2]; 101 nM,0.98
same,Cell survival at given concentration,[2]; 318 nM,0.99
same,Cell survival at given concentration,[2]; 1 μM,1.01
same,Cell survival at given concentration,[2]; 3 μM,1.00
same,Cell survival at given concentration,[2]; 10 μM,1.02
same,Cell survival at given concentration,[2]; 32 μM,1.04
same,Cell survival at given concentration,[2]; 100 μM,1.04
same,Cell survival at given concentration,[2]; 316 μM,1.03
same,Cell survival at given concentration,[2]; 1000 μM,1.02
same,Cell survival at given concentration,MCF7 breast cancer cells; 101 nM,1.02
same,Cell survival at given concentration,MCF7 breast cancer cells; 318 nM,1.02
same,Cell survival at given concentration,MCF7 breast cancer cells; 1 μM,1.04
same,Cell survival at given concentration,MCF7 breast cancer cells; 3 μM,1.05
same,Cell survival at given concentration,MCF7 breast cancer cells; 10 μM,1.05
same,Cell survival at given concentration,MCF7 breast cancer cells; 32 μM,1.04
same,Cell survival at given concentration,MCF7 breast cancer cells; 100 μM,1.03
same,Cell survival at given concentration,MCF7 breast cancer cells; 316 μM,1.02
same,Cell survival at given concentration,MCF7 breast cancer cells; 1000 μM,1.01
same,Cell survival at given concentration,[3]; 101 nM,1.01
same,Cell survival at given concentration,[3]; 318 nM,0.99
same,Cell survival at given concentration,[3]; 1 μM,1.04
same,Cell survival at given concentration,[3]; 3 μM,1.00
same,Cell survival at given concentration,[3]; 10 μM,1.03
same,Cell survival at given concentration,[3]; 32 μM,1.00
same,Cell survival at given concentration,[3]; 100 μM,0.99
same,Cell survival at given concentration,[3]; 316 μM,1.02
same,Cell survival at given concentration,[3]; 1000 μM,1.01
same,Cell survival at given concentration,T24 bladder cancer cells; 101 nM,1.02
same,Cell survival at given concentration,T24 bladder cancer cells; 318 nM,1.01
same,Cell survival at given concentration,T24 bladder cancer cells; 1 μM,0.96
same,Cell survival at given concentration,T24 bladder cancer cells; 3 μM,1.00
same,Cell survival at given concentration,T24 bladder cancer cells; 10 μM,0.99
same,Cell survival at given concentration,T24 bladder cancer cells; 32 μM,1.06
same,Cell survival at given concentration,T24 bladder cancer cells; 100 μM,0.98
same,Cell survival at given concentration,T24 bladder cancer cells; 316 μM,1.07
same,Cell survival at given concentration,T24 bladder cancer cells; 1000 μM,1.02
same,Cell survival at given concentration,AGS stomach cancer cells; 101 nM,1.03
same,Cell survival at given concentration,AGS stomach cancer cells; 318 nM,1.03
same,Cell survival at given concentration,"AGS stomach cancer cells; 1 μM, Table 10.1",1.07
same,Cell survival at given concentration,"AGS stomach cancer cells; 3 μM, Table 10.1",1.04
same,Cell survival at given concentration,"AGS stomach cancer cells; 10 μM, Table 10.1",1.07
same,Cell survival at given concentration,"AGS stomach cancer cells; 32 μM, Table 10.1",1.06
same,Cell survival at given concentration,"AGS stomach cancer cells; 100 μM, Table 10.1",1.09
same,Cell survival at given concentration,AGS stomach cancer cells; 316 μM,1.06
same,Cell survival at given concentration,AGS stomach cancer cells; 1000 μM,1.06
O=c1oc2cc(O)ccc2c2cc(O)c(O)cc12 [urolithin C],Cell survival at given concentration,[1]; 101 nM,1.00
same,Cell survival at given concentration,[1]; 318 nM,0.99
same,Cell survival at given concentration,[1]; 1 μM,1.00
same,Cell survival at given concentration,[1]; 3 μM,0.99
same,Cell survival at given concentration,[1]; 10 μM,0.94
same,Cell survival at given concentration,[1]; 32 μM,0.34
same,Cell survival at given concentration,[1]; 100 μM,0.02
same,Cell survival at given concentration,[1]; 316 μM,0.01
same,Cell survival at given concentration,[1]; 1000 μM,0.01
same,pIC50,[1]; Table 6.1,4.59
same,Cell survival at given concentration,A549 lung cancer cells; 101 nM,0.99
same,Cell survival at given concentration,A549 lung cancer cells; 318 nM,0.99
same,Cell survival at given concentration,A549 lung cancer cells; 1 μM,1.02
same,Cell survival at given concentration,A549 lung cancer cells; 3 μM,1.04
same,Cell survival at given concentration,A549 lung cancer cells; 10 μM,1.04
same,Cell survival at given concentration,A549 lung cancer cells; 32 μM,1.02
same,Cell survival at given concentration,A549 lung cancer cells; 100 μM,0.36
same,Cell survival at given concentration,A549 lung cancer cells; 316 μM,0.16
same,Cell survival at given concentration,A549 lung cancer cells; 1000 μM,0.12
same,pIC50,A549 lung cancer cells; Table 7.1,4.03
same,Cell survival at given concentration,A-431 skin cancer cells; 101 nM,1.02
same,Cell survival at given concentration,A-431 skin cancer cells; 318 nM,1.02
same,Cell survival at given concentration,A-431 skin cancer cells; 1 μM,1.02
same,Cell survival at given concentration,A-431 skin cancer cells; 3 μM,1.03
same,Cell survival at given concentration,A-431 skin cancer cells; 10 μM,1.02
same,Cell survival at given concentration,A-431 skin cancer cells; 32 μM,0.95
same,Cell survival at given concentration,A-431 skin cancer cells; 100 μM,0.34
same,Cell survival at given concentration,A-431 skin cancer cells; 316 μM,0.20
same,Cell survival at given concentration,A-431 skin cancer cells; 1000 μM,0.06
same,pIC50,A-431 skin cancer cells; Table 9.1,4.12
same,Cell survival at given concentration,[2]; 101 nM,0.99
same,Cell survival at given concentration,[2]; 318 nM,0.99
same,Cell survival at given concentration,[2]; 1 μM,1.00
same,Cell survival at given concentration,[2]; 3 μM,1.00
same,Cell survival at given concentration,[2]; 10 μM,0.89
same,Cell survival at given concentration,[2]; 32 μM,0.36
same,Cell survival at given concentration,[2]; 100 μM,0.18
same,Cell survival at given concentration,[2]; 316 μM,0.16
same,Cell survival at given concentration,[2]; 1000 μM,0.07
same,pIC50,[2]; Table 4.1,4.62
same,Cell survival at given concentration,MCF7 breast cancer cells; 101 nM,0.97
same,Cell survival at given concentration,MCF7 breast cancer cells; 318 nM,0.99
same,Cell survival at given concentration,MCF7 breast cancer cells; 1 μM,0.97
same,Cell survival at given concentration,MCF7 breast cancer cells; 3 μM,1.02
same,Cell survival at given concentration,MCF7 breast cancer cells; 10 μM,1.07
same,Cell survival at given concentration,MCF7 breast cancer cells; 32 μM,0.76
same,Cell survival at given concentration,MCF7 breast cancer cells; 100 μM,0.22
same,Cell survival at given concentration,MCF7 breast cancer cells; 316 μM,0.21
same,Cell survival at given concentration,MCF7 breast cancer cells; 1000 μM,0.20
same,pIC50,MCF7 breast cancer cells; Table 5.1,4.46
same,Cell survival at given concentration,[3]; 101 nM,1.03
same,Cell survival at given concentration,[3]; 318 nM,1.00
same,Cell survival at given concentration,[3]; 1 μM,1.04
same,Cell survival at given concentration,[3]; 3 μM,1.01
same,Cell survival at given concentration,[3]; 10 μM,1.07
same,Cell survival at given concentration,[3]; 32 μM,0.93
same,Cell survival at given concentration,[3]; 100 μM,0.08
same,Cell survival at given concentration,[3]; 316 μM,0.04
same,Cell survival at given concentration,[3]; 1000 μM,0.03
same,pIC50,[3]; Table 8.1,4.28
same,Cell survival at given concentration,T24 bladder cancer cells; 101 nM,1.00
same,Cell survival at given concentration,T24 bladder cancer cells; 318 nM,0.94
same,Cell survival at given concentration,T24 bladder cancer cells; 1 μM,0.96
same,Cell survival at given concentration,T24 bladder cancer cells; 3 μM,0.96
same,Cell survival at given concentration,T24 bladder cancer cells; 10 μM,0.93
same,Cell survival at given concentration,T24 bladder cancer cells; 32 μM,0.37
same,Cell survival at given concentration,T24 bladder cancer cells; 100 μM,0.12
same,Cell survival at given concentration,T24 bladder cancer cells; 316 μM,0.08
same,Cell survival at given concentration,T24 bladder cancer cells; 1000 μM,0.07
same,pIC50,"T24 bladder cancer cells; Table 3.1, read-out: 1050",4.58
same,Cell survival at given concentration,AGS stomach cancer cells; 101 nM,0.98
same,Cell survival at given concentration,AGS stomach cancer cells; 318 nM,0.99
same,Cell survival at given concentration,"AGS stomach cancer cells; 1 μM, Table 10.1",0.98
same,Cell survival at given concentration,"AGS stomach cancer cells; 3 μM, Table 10.1",0.99
same,Cell survival at given concentration,"AGS stomach cancer cells; 10 μM, Table 10.1",1.02
same,Cell survival at given concentration,"AGS stomach cancer cells; 32 μM, Table 10.1",0.86
same,Cell survival at given concentration,"AGS stomach cancer cells; 100 μM, Table 10.1",0.15
same,Cell survival at given concentration,AGS stomach cancer cells; 316 μM,0.04
same,Cell survival at given concentration,AGS stomach cancer cells; 1000 μM,0.02
same,pIC50,AGS stomach cancer cells; Table 10.1,4.25
